Tests used:
[1] = test system: goosegrass; experiment: Test A preemergence; assay type: in vivo, Eleusine indica
Outline: (§1)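 Seeds in loam–sand blend received a directed preemergence soil spray of compound in non-phytotoxic solvent with surfactant; postemergence plants (2–10 cm, one- to two-leaf stage) were sprayed with the same formulation. After 10 days in greenhouse, injury was rated visually versus untreated controls, 0 (no effect) to 100 (complete control).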

[2] = test system: foxtail, giant; experiment: Test A postemergence; assay type: in vivo, Setaria faberi
Outline: as §1

[3] = test system: blackgrass; experiment: Test A preemergence; assay type: in vivo, Alopecurus myosuroides
Outline: as §1

[4] = test system: ryegrass, Italian; experiment: Test A preemergence; assay type: in vivo, Lolium multiflorum
Outline: as §1

[5] = test system: ragweed; experiment: Test A preemergence; assay type: in vivo, Ambrosia artemisiifolia
Outline: as §1

[6] = test system: barnyardgrass; experiment: Test B flooded paddy test; assay type: in vivo, Echinochloa crus-galli; conditions: 250 g ai/ha, Flood, 13 days, 0 to 100 scale (0 no effect, 100 complete control)
Outline: (§2)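 Visual scores from 0 (no effect) to 100 (complete kill) were assigned 13 days after treatment by comparison with controls. Seedlings had been treated at two leaves by adding compound to floodwater standing 3 cm deep, kept at that level in the greenhouse.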

[7] = test system: soybean; experiment: Test A preemergence; assay type: in vivo, Glycine max
Outline: as §1

[8] = test system: corn; experiment: Test A postemergence; assay type: in vivo, Zea mays
Outline: as §1

[9] = test system: oat, wild; experiment: Test A preemergence; assay type: in vivo, Avena fatua
Outline: as §1

[10] = test system: pigweed, palmer; experiment: Test A preemergence; assay type: in vivo, Amaranthus palmeri
Outline: as §1

[11] = test system: kochia; experiment: Test A postemergence; assay type: in vivo, Bassia scoparia
Outline: as §1

[12] = test system: soybean; experiment: Test A postemergence; assay type: in vivo, Glycine max
Outline: as §1

[13] = test system: corn; experiment: Test A preemergence; assay type: in vivo, Zea mays
Outline: as §1

[14] = test system: ducksalad; experiment: Test B flooded paddy test; assay type: in vivo, Heteranthera limosa; conditions: 250 g ai/ha, Flood, 13 days, 0 to 100 scale (0 no effect, 100 complete control)
Outline: as §2

[15] = test system: blackgrass; experiment: Test A postemergence; assay type: in vivo, Alopecurus myosuroides
Outline: as §1

[16] = test system: sedge, umbrella; experiment: Test B flooded paddy test; assay type: in vivo, Cyperus difformis; conditions: 250 g ai/ha, Flood, 13 days, 0 to 100 scale (0 no effect, 100 complete control)
Outline: as §2

[17] = test system: wheat; experiment: Test A preemergence; assay type: in vivo, Triticum aestivum
Outline: as §1

[18] = test system: kochia; experiment: Test A preemergence; assay type: in vivo, Bassia scoparia
Outline: as §1

[19] = test system: oat, wild; experiment: Test A postemergence; assay type: in vivo, Avena fatua
Outline: as §1

[20] = test system: galium; experiment: Test A postemergence; assay type: in vivo, Galium aparine
Outline: as §1

[21] = test system: ragweed; experiment: Test A postemergence; assay type: in vivo, Ambrosia artemisiifolia
Outline: as §1

[22] = test system: wheat; experiment: Test A postemergence; assay type: in vivo, Triticum aestivum
Outline: as §1

[23] = test system: horseweed; experiment: Test A postemergence; assay type: in vivo, Erigeron canadensis
Outline: as §1

[24] = test system: pigweed, palmer; experiment: Test A postemergence; assay type: in vivo, Amaranthus palmeri
Outline: as §1

[25] = test system: rice; experiment: Test B flooded paddy test; assay type: in vivo, Oryza sativa; conditions: 250 g ai/ha, Flood, 13 days, 0 to 100 scale (0 no effect, 100 complete control)
Outline: as §2

[26] = test system: goosegrass; experiment: Test A postemergence; assay type: in vivo, Eleusine indica
Outline: as §1

[27] = test system: ryegrass, Italian; experiment: Test A postemergence; assay type: in vivo, Lolium multiflorum
Outline: as §1

[28] = test system: foxtail, giant; experiment: Test A preemergence; assay type: in vivo, Setaria faberi
Outline: as §1

[29] = 125 g ai/ha, visual injury after 10 days, 0 to 100 scale, 0 is no effect, 100 is complete control
[30] = 500 g ai/ha, 0 to 100 scale (0 no effect, 100 complete control), 10 days
[31] = 125 g ai/ha, postemergence, 10 days, 0 to 100 scale, 0 no effect, 100 complete control
[32] = 500 g ai/ha, postemergence, 10 days, visual injury, 0 to 100 scale (0 no effect, 100 complete control)
[33] = 125 g ai/ha, postemergence, 10 days, visual injury, 0 to 100 scale (0 no effect, 100 complete control)
[34] = 500 g ai/ha, Postemergence, 0 to 100 scale

`CCc1ccc(-n2cnc(C3CC3)n2)cc1C(=O)N1C[C@H](C)Oc2c(Cl)cccc21` [Compound 103] was tested, and the “Plant response rating, Goosegrass” value [1, 29] was 100, the “Plant response rating, Goosegrass” value [1, 30] was 100 and the “Foxtail, Giant plant response rating” value [2, 31] was 90. For the same compound, the “Plant response rating, Foxtail, Giant” value [2, 32] was 90, the “Plant response rating, Blackgrass” value [3, 29] was 50 and the “Plant response rating, Blackgrass” value [3, 30] was 80. For the same compound, the “Plant response rating, Ryegrass, Italian” value [4, 29] was 80, the “Plant response rating, Ryegrass, Italian” value [4, 30] was 90 and the “Plant response rating, Ragweed” value [5, 29] was 0. The “Plant response rating, Ragweed” value [5, 30] was 0, the “Plant response rating, Barnyardgrass” value [6] was 20 and the “Plant response rating, Soybean” value [7, 29] was 30. The “Plant response rating, Soybean” value [7, 30] was 60, the “Corn plant response rating” value [8, 31] was 10 and the “Plant response rating, Corn” value [8, 32] was 80. For the same compound, the “Plant response rating, Oat, Wild” value [9, 29] was 40, the “Plant response rating, Oat, Wild” value [9, 30] was 40 and the “Plant response rating, Pigweed, Palmer” value [10, 29] was 90. For the same compound, the “Plant response rating, Pigweed, Palmer” value [10, 30] was 100, the “Kochia plant response rating” value [11, 31] was 80 and the “Plant response rating, Kochia” value [11, 32] was 100. The “Soybean plant response rating” value [12, 31] was 100, the “Plant response rating, Soybean” value [12, 32] was 100 and the “Plant response rating, Corn” value [13, 29] was 20. The “Plant response rating, Corn” value [13, 30] was 20, the “Plant response rating, Ducksalad” value [14] was 35 and the “Blackgrass plant response rating” value [15, 31] was 60. For the same compound, the “Plant response rating, Blackgrass” value [15, 32] was 90, the “Plant response rating, Sedge, Umbrella” value [16] was 100 and the “Plant response rating, Wheat” value [17, 29] was 0. The “Plant response rating, Wheat” value [17, 30] was 0, the “Plant response rating, Kochia” value [18, 29] was 50 and the “Plant response rating, Kochia” value [18, 30] was 90. The “Oat, Wild plant response rating” value [19, 31] was 30, the “Plant response rating, Oat, Wild” value [19, 32] was 80 and the “Galium plant response rating” value [20, 31] was 100. The “Plant response rating, Galium” value [20, 32] was 100, the “Ragweed plant response rating” value [21, 31] was 0 and the “Plant response rating, Ragweed” value [21, 32] was 40. For the same compound, the “Wheat plant response rating” value [22, 31] was 10, the “Plant response rating, Wheat” value [22, 32] was 30 and the “Horseweed plant response rating” value [23, 31] was 0. For the same compound, the “Plant response rating, Horseweed” value [23, 32] was 10, the “Pigweed, Palmer plant response rating” value [24, 31] was 90 and the “Plant response rating, Pigweed, Palmer” value [24, 32] was 100. The “Plant response rating, Rice” value [25] was 10, the “Goosegrass plant response rating” value [26, 31] was 70 and the “Plant response rating, Goosegrass” value [26, 32] was 100. The “Ryegrass, Italian plant response rating” value [27, 31] was 50, the “Plant response rating, Ryegrass, Italian” value [27, 32] was 60 and the “Plant response rating, Foxtail, Giant” value [28, 29] was 100. For the same compound, the “Plant response rating, Foxtail, Giant” value [28, 30] was 100.

`Cc1c(C(=O)N2CC(C)Oc3c(Cl)cccc32)cccc1-n1cncn1` (centres unmarked) [Compound 40] was tested, and the “Plant response rating, Goosegrass” value [1, 29] was 0, the “Plant response rating, Goosegrass” value [1, 30] was 0 and the “Plant response rating, Foxtail, Giant” value [2, 33] was 0. The “Plant response rating, Foxtail, Giant” value [2, 34] was 0, the “Plant response rating, Blackgrass” value [3, 29] was 0 and the “Plant response rating, Blackgrass” value [3, 30] was 0. For the same compound, the “Plant response rating, Ryegrass, Italian” value [4, 29] was 0, the “Plant response rating, Ryegrass, Italian” value [4, 30] was 0 and the “Plant response rating, Ragweed” value [5, 29] was 0. The “Plant response rating, Ragweed” value [5, 30] was 0, the “Plant response rating, Barnyardgrass” value [6] was 0 and the “Plant response rating, Soybean” value [7, 29] was 0. The “Plant response rating, Soybean” value [7, 30] was 40, the “Plant response rating, Corn” value [8, 33] was 0 and the “Plant response rating, Corn” value [8, 34] was 0. The “Plant response rating, Oat, Wild” value [9, 29] was 0, the “Plant response rating, Oat, Wild” value [9, 30] was 0 and the “Plant response rating, Pigweed, Palmer” value [10, 29] was 0. For the same compound, the “Plant response rating, Pigweed, Palmer” value [10, 30] was 0, the “Plant response rating, Kochia” value [11, 33] was 0 and the “Plant response rating, Kochia” value [11, 34] was 10. For the same compound, the “Plant response rating, Soybean” value [12, 33] was 0, the “Plant response rating, Soybean” value [12, 34] was 20 and the “Plant response rating, Corn” value [13, 29] was 0. For the same compound, the “Plant response rating, Corn” value [13, 30] was 0, the “Plant response rating, Ducksalad” value [14] was 0 and the “Plant response rating, Blackgrass” value [15, 33] was 0. The “Plant response rating, Blackgrass” value [15, 34] was 0, the “Plant response rating, Sedge, Umbrella” value [16] was 0 and the “Plant response rating, Wheat” value [17, 29] was 0. The “Plant response rating, Wheat” value [17, 30] was 0, the “Plant response rating, Kochia” value [18, 29] was 0 and the “Plant response rating, Kochia” value [18, 30] was 0. For the same compound, the “Plant response rating, Oat, Wild” value [19, 33] was 0, the “Plant response rating, Oat, Wild” value [19, 34] was 0 and the “Plant response rating, Galium” value [20, 33] was 30. The “Plant response rating, Galium” value [20, 34] was 0, the “Plant response rating, Ragweed” value [21, 33] was 0 and the “Plant response rating, Ragweed” value [21, 34] was 0. For the same compound, the “Plant response rating, Wheat” value [22, 33] was 0, the “Plant response rating, Wheat” value [22, 34] was 0 and the “Plant response rating, Horseweed” value [23, 33] was 0. The “Plant response rating, Horseweed” value [23, 34] was 0, the “Plant response rating, Pigweed, Palmer” value [24, 33] was 0 and the “Plant response rating, Pigweed, Palmer” value [24, 34] was 0. The “Plant response rating, Rice” value [25] was 0, the “Plant response rating, Goosegrass” value [26, 33] was 0 and the “Plant response rating, Goosegrass” value [26, 34] was 0. The “Plant response rating, Ryegrass, Italian” value [27, 33] was 0, the “Plant response rating, Ryegrass, Italian” value [27, 34] was 0 and the “Plant response rating, Foxtail, Giant” value [28, 29] was 0. For the same compound, the “Plant response rating, Foxtail, Giant” value [28, 30] was 0.

Source: patent US20260262643A1, “HERBICIDAL BENZOXAZINES” (FMC CORPORATION, priority 2022, published 2026)
